Test system: NSG host mice
Assay: xGVHD model with SHP1/2 inhibitor-treated TEFF cells (Example 16)
Type: in vivo
Settings: for Tbet+: engrafted human T cells; for Tbet+ / TNF-α / Absolute no. of Foxp3+ T cells expressing IFN-γ / Absolute no. of Foxp3+ T cells expressing IL-2 / Absolute no. of Foxp3+ T cells expressing TNF-α / Absolute no. of Foxp3− T cells expressing IL-2 / Absolute no. of Foxp3− T cells expressing TNF-α: TEFF & PDL1-LV transduced T cells; for Post LPS survival (%): human TEFF cells + monos + TPDL1, inhibitor treatment of Teff 100 μM, LPS day 5; for TNF-α: serum 120 min after LPS; for Absolute no. of Foxp3+ T cells expressing IFN-γ / Absolute no. of Foxp3+ T cells expressing IL-2 / Absolute no. of Foxp3+ T cells expressing TNF-α / Absolute no. of Foxp3− T cells expressing IL-2 / Absolute no. of Foxp3− T cells expressing TNF-α / Absolute no. of Foxp3− T cells expressing IFN-γ: spleen day 6, PMA/ionomycin; for Absolute no. of Foxp3− T cells expressing IFN-γ: TEFF (inhibitor-treated ex vivo where labelled) & PDL1-LV transduced T cells
From the text: Because PD1 receptor signaling occurs via SHP1/2, it was next hypothesized that ex vivo pharmacologic inhibition of this pathway using prevanadate and NSC87877 might also generate TEFF cells (TEFFShp1/2^in) resistant to the tolerizing effect of PDL1. NSG host mice received a combination of human Th1 cells (either unmodified, pervanadate-treated, or NSC87877-treated) and PDL1-LV transduced T cells. At day 6, absolute numbers of human T cells engrafted in the spleen were enumerated. Splenocyes were stimulated (PMA/ionomycin) and the absolute number of Foxp3-negative T cells expressing IFN-γ (i), IL-2 (ii), and TNF-α (iii) were quantified; conversely, […]
Recipients were challenged with LPS and serum was harvested 120 min later for measurement of TNF-α. Absolute numbers of engrafted human T cells expressing T-bet were quantified.
Cohorts of host mice received the human cell inocula specified, followed by LPS administration on day 5 post-transfer for assessment of lethal cytokine-mediated xGVHD.

| Compound | Tbet+ | Post LPS survival (%) | TNF-α [µg/mL] | Absolute no. of Foxp3+ T cells expressing IFN-γ | Absolute no. of Foxp3+ T cells expressing IL-2 | Absolute no. of Foxp3+ T cells expressing TNF-α | Absolute no. of Foxp3− T cells expressing IL-2 | Absolute no. of Foxp3− T cells expressing TNF-α | Absolute no. of Foxp3− T cells expressing IFN-γ |
| --- | --- | --- | --- | --- | --- | --- | --- | --- | --- |
| O=S(=O)(O)c1ccc2cc(N=Nc3cc(S(=O)(=O)O)c4cccnc4c3O)ccc2c1 [NSC87877] | ~2.7 ×10^3 | 0 | ~0.42 | ~0.1 ×10^3 | ~1.4 ×10^3 | ~1.3 ×10^3 | ~2.6 ×10^3 | ~6.0 ×10^3 | ~1.1 ×10^3 |
| pervanadate | ~2.0 ×10^3 | 33 | ~0.37 | ~.3 ×10^3 | ~1.3 ×10^3 | ~0.4 ×10^3 | ~2 ×10^3 | ~3.9 ×10^3 | ~1.5 ×10^3 |
